The text below walks through data of patent EP4768492A1, “CAPPING COMPOUND, AND APPLICATION THEREOF IN MRNA CAPPING” (Jiangsu Synthgene Biotechnology Co., Ltd., priority 2023, dated 2025).

SMILES strings stand for the structures.

Series [1] relates to mRNA. Nature of the series: IVT capping rate of mRNA by LC-MS after RNase H cleavage. The series is classed as biochemical. As for the experimental part:
(§1) mRNA IVT reactions were performed using the cap analogs from the examples. Firstly, the required volumes of materials for the system were calculated, and then the samples were added (the IVT reaction system is shown in Table 1). Sterile enzyme-free water was added to the system, and then 10× buffer, NTPs, and the cap analog were sequentially added. The mixture was uniformly mixed and then gently centrifuged, followed by the addition of the nuclease inhibitor, the inorganic pyrophosphatase, the T7 RNA polymerase, and the linearized DNA template. The resulting mixture was thoroughly mixed, then gently centrifuged, and incubated at 37 °C. After 2 h, DNase I (1 U) was added, and the mixture was incubated at 37 °C for another 30 min to remove the DNA template. RNA purification was then performed using a magnetic bead purification method. The purified mRNA was dissolved in sterile enzyme-free water, and then quantitative detection was performed using Nanodrop One. Table 1. IVT reaction system
Liquid chromatography-mass spectrometry (LC-MS) was used to detect the IVT capping rates of mRNAs with different starting cap analogs. Firstly, a labeled (usually biotin-labeled) DNA probe matched with the starting base of the transcribed mRNA product was required to be designed, and streptavidin-labeled magnetic beads were washed, and then incubated with the synthesized DNA probe, mRNA, and 10× RNase H reaction buffer with slow mixing at room temperature for 30 min. Subsequently, 20 µL of RNase H (5 U/µL) was added, and the mixture was incubated at 37 °C for 3 h, with uniform mixing every half hour. After the incubation was completed, the magnetic beads were washed, and then 100 µL of 75% methanol heated to 80 °C was added to the washed magnetic beads. The mixture was heated to 80 °C on a heating plate, held for 3 min, and then placed on a magnetic rack. The supernatant was pipetted and dried at room temperature for 45 min to 10 µL by using an evaporation centrifuge. The sample was then resuspended in 50 µL of 100 µM EDTA/1% MeOH for LC-MS analysis to determine the capping of RNA in the transcription reaction. Since capped and uncapped bases have a distinct difference in molecular weight, the capping rates of mRNA transcription processes initiated with different cap analogs can be determined by utilizing this difference in molecular mass.

For series [2], the system named is mRNA. Nature of the series: mRNA in vitro transcription (IVT) yield with cap analog. It counts as biochemical. The note with it: mRNA yield of IVT reaction, 37 °C 2 h, purified mRNA quantified by Nanodrop One. As for the experimental part:
as §1

The test system of a further series is mice. In words: mRNA translation efficiency in mice: LNP-mRNA by tail vein, luciferase in vivo imaging. The note with it: 1 µg LNP-mRNA; for protein expression levels in mice: 24 hours after administration, compared to Comparative Example 1; for distribution after tail vein administration: mice, in vivo imaging (FIG. 1). As for the experimental part: The tail of each mouse was gently wiped with an alcohol cotton ball, and 1 µg of an LNP-mRNA drug was injected via the tail vein using an insulin syringe. Twenty-four hours after the tail vein administration, the mouse was intraperitoneally injected with 10% chloral hydrate (anesthetized according to the mouse body weight, 50-60 µL/20 g). After the mouse was anesthetized, 150 µL of a prepared luminescent substrate (luminescent substrate concentration: 15 mg/mL, Cat. No. 2109GR001, brand: biofroxx) was intraperitoneally injected. Five minutes after the injection of the luminescent substrate into the mouse, the mouse was placed in a small animal in vivo imaging system. The corresponding luciferase channel was selected to capture an in vivo image of the mouse, and the image was saved. This procedure was repeated at other time points, and the exposure parameters should be kept consistent for comparison.

For the molecule `COC1C(OP(=O)(O)OCC2OC(n3cnc4c(=O)[nH]c(N)nc43)C(O)C2O)C(COP(=O)(O)OP(=O)(O)OP(=O)(O)C2CC2C2OC(n3c[n+](C)c4c(=O)[nH]c(N)nc43)C(O)C2O)OC1n1cnc2c(N)ncnc21` (stereo not shown) [Compound 1], the “Capping rate (%)” value in the series with mRNA [1] was found to be 99.1%. Moreover, the “Yield (µg) in 20 µL system” value in the series on mRNA [2] was determined as 114 µg. In the series on mice, the “protein expression levels in mice” value is on record as “higher protein expression levels in mice compared to Comparative Example 1” and the “distribution after tail vein administration” value (“distribution” below) is given as “mainly distributed in the liver”.

Regarding `COC1C(O)C(n2c[n+](C)c3c(=O)[nH]c(N)nc32)OC1C1CC1P(=O)(O)OP(=O)(O)OP(=O)(O)OCC1OC(n2cnc3c(N)ncnc32)C(OC)C1OP(=O)(O)OCC1OC(n2cnc3c(=O)[nH]c(N)nc32)C(O)C1O` (stereo not shown) [Compound 2], the “Capping rate (%)” value in the series on mRNA [1] was 98.4%. Further, in the series with mRNA [2], the “Yield (µg) in 20 µL system” value was 117 µg. Also, in the series with mice, the “protein expression levels in mice” value is listed as “higher protein expression levels in mice compared to Comparative Example 1” and the “distribution” value is listed as “mainly distributed in the liver”.

As to `COCC1C(O)C(n2c[n+](C)c3c(=O)[nH]c(N)nc32)OC1C1CC1P(=O)(O)OP(=O)(O)OP(=O)(O)OCC1OC(n2cnc3c(N)ncnc32)C(OC)C1OP(=O)(O)OCC1OC(n2cnc3c(=O)[nH]c(N)nc32)C(O)C1O` (stereo not shown) [Compound 5], in the series on mRNA [1], the “Capping rate (%)” value came out at 96.3%. In the series on mRNA [2], the “Yield (µg) in 20 µL system” value worked out at 110 µg.

As to `COC1C(OP(=O)(O)OCC2OC(n3cnc4c(=O)[nH]c(N)nc43)C(O)C2O)C(COP(=O)(O)OP(=O)(O)OP(=O)(O)C2CC2C2OC(n3c[n+](C)c4c(=O)[nH]c(N)nc43)C(F)C2O)OC1n1cnc2c(N)ncnc21` (stereo not shown) [Compound 9], the “Capping rate (%)” value with mRNA [1] worked out at 94.5%. In addition, in the series on mRNA [2], the “Yield (µg) in 20 µL system” value is given as 98 µg.

In the case of `COC1C(OP(=O)(O)OCC2OC(n3cnc4c(=O)[nH]c(N)nc43)C(O)C2O)C(COP(=O)(O)OP(=O)(O)OP(=O)(O)C2CC2C2OC(n3c[n+](C)c4c(=O)[nH]c(N)nc43)C(O)C2CNC(C)=O)OC1n1cnc2c(N)ncnc21` (stereo not shown) [Compound 10], the “Capping rate (%)” value in the series with mRNA [1] is on record as 96.3%. Besides, in the series with mRNA [2], the “Yield (µg) in 20 µL system” value stood at 103 µg.

Consider `CO[C@@H]1[C@H](OP(=O)(O)OC[C@H]2O[C@@H](n3cnc4c(=O)[nH]c(N)nc43)[C@H](O)[C@@H]2O)[C@@H](COP(O)(=S)OP(=O)(O)OP(=O)(O)C2CC2[C@H]2O[C@@H](n3c[n+](C)c4c(=O)[nH]c(N)nc43)[C@H](O)[C@@H]2O)O[C@H]1n1cnc2c(N)ncnc21` (stereo partly shown) [Compound 14], for which the “Capping rate (%)” value in the series on mRNA [1] stood at 98.0%. The “Yield (µg) in 20 µL system” value in the series with mRNA [2] was determined as 102 µg.

With `CO[C@@H]1[C@H](OP(=O)(O)OC[C@H]2O[C@@H](n3cnc4c(=O)[nH]c(N)nc43)[C@H](O)[C@@H]2O)[C@@H](C2CC2P(=O)(O)OP(=O)(O)OP(=O)(O)OC[C@H]2O[C@@H](n3c[n+](C)c4c(=O)[nH]c(N)nc43)[C@H](O)[C@@H]2O)O[C@H]1n1cnc2c(N)ncnc21` (stereo partly shown) [Compound 21], the “Capping rate (%)” value with mRNA [1] was found to be 97.1%. In the series on mRNA [2], the “Yield (µg) in 20 µL system” value worked out at 99 µg.

Regarding `CO[C@@H]1[C@H](OP(=O)(O)C2CC2[C@H]2O[C@@H](n3cnc4c(=O)[nH]c(N)nc43)[C@H](O)[C@@H]2O)[C@@H](COP(=O)(O)OP(=O)(O)OP(=O)(O)OC[C@H]2O[C@@H](n3c[n+](C)c4c(=O)[nH]c(N)nc43)[C@H](O)[C@@H]2O)O[C@H]1n1cnc2c(N)ncnc21` (stereo partly shown) [Compound 22], the “Capping rate (%)” value in the series on mRNA [1] is 96.0%. In addition, the “Yield (µg) in 20 µL system” value with mRNA [2] is 115 µg.

`CO[C@@H]1[C@H](OP(=O)(O)OC[C@H]2O[C@@H](n3cnc4c(=O)[nH]c(N)nc43)[C@H](O)[C@@H]2O)[C@@H](COP(=O)(O)OP(=O)(O)OP(=O)(O)OC2([C@H]3O[C@@H](n4c[n+](C)c5c(=O)[nH]c(N)nc54)[C@H](O)[C@@H]3O)CC2)O[C@H]1n1cnc2c(N)ncnc21` [Compound 31]: the “Capping rate (%)” value in the series with mRNA [1] is 98.5%. In addition, the “Yield (µg) in 20 µL system” value in the series on mRNA [2] is 112 µg. Also, in the series with mice, the “protein expression levels in mice” value is “higher protein expression levels in mice compared to Comparative Example 1” and the “distribution” value is given as “mainly distributed in the liver”.

For `CO[C@@H]1[C@H](OP(=O)(O)OC[C@H]2O[C@@H](n3cnc4c(=O)[nH]c(N)nc43)[C@H](O)[C@@H]2O)[C@@H](COP(=O)(O)OP(=O)(O)OP(=O)(O)OC2([C@H]3O[C@@H](n4c[n+](C)c5c(=O)[nH]c(N)nc54)[C@H](O)[C@@H]3OC)CC2)O[C@H]1n1cnc2c(N)ncnc21` [Compound 32], the “Capping rate (%)” value in the series with mRNA [1] came to 98.9%. Further, in the series with mRNA [2], the “Yield (µg) in 20 µL system” value is recorded as 116 µg. Besides, in the series on mice, the “protein expression levels in mice” value is reported as “higher protein expression levels in mice compared to Comparative Example 1” and the “distribution” value is reported as “mainly distributed in the liver”.

Take `CO[C@@H]1[C@H](OP(=O)(O)OC[C@H]2O[C@@H](n3cnc4c(=O)[nH]c(N)nc43)[C@H](O)[C@@H]2O)[C@@H](COP(=O)(O)OP(=O)(O)OP(=O)(O)OC[C@H]2O[C@@H](n3c[n+](C)c4c(=O)[nH]c(N)nc43)[C@H](O)[C@@H]2O)O[C@H]1n1cnc2c(N)ncnc21` [Compound 43, reference compound]: the “Capping rate (%)” value in the series on mRNA [1] is 96.1%. In addition, the “Yield (µg) in 20 µL system” value in the series on mRNA [2] is 105 µg. Besides, in the series with mice, the “distribution” value is listed as “mainly distributed in the liver”.
